US12083082B2, “Methods for treating neurodegenerative disorders” (Alzheon, Inc., priority 2018, dated 2024)
Values joined by “and” are separate entries in the source; they are usually repeats but may differ in a detail not shown here. Equal entries are not always repeated. Where two headings read alike, the source gives them in different places.

Legend:
[1] = CSF concentrations of 3-SPA at Week 78 in North American Phase 3 tramiprosate trial (LC-MS/MS); assay type: in vivo, human; conditions: 150 mg BID tramiprosate; for concentration at 78 week: human, CSF, oral, 150 mg BID
Experimental: The samples were withdrawn from the freezer and shipped on dry ice to Nextcea Inc. (Woburn, MA) and stored in a freezer set to maintain−80° C. after receipt. The CSF collection and storage were carried out after subjects signed an informed consent in accordance with the ethical guidelines in the Czech Republic and good clinical practice, and according to the widely recognized consensus protocol for the standardization of CSF collection and biobanking (Viola et al., Amyloid β oligomers in Alzheimer's disease pathogenesis, treatment, and diagnosis. Acta Neuropathol 2015; 129:183-206; and Vanderstichele et al. Standardization of preanalytical aspects of cerebrospinal fluid biomarker testing for Alzheimer's disease diagnosis: A consensus paper from the Alzheimer's Biomarkers Standardization Initiative. Alzheimers Dement 2012; 8(1):65-73). Commercial ELISA kits (Innogenetics NV, Ghent, Belgium) were used for dementia biomarker analyses (Aβ1-42, tau protein, and phospho-tau), and cut off values derived from a validation study were used. CSF concentrations of 3-SPA were also quantified in 12 patients receiving the 150 mg BID dose of tramiprosate at Week 78 of the Phase 3 North American AD trial.
The 3-SPA reference material and human CSF samples were mixed with N-ethyl-N′-(3-dimethylaminopropyl) carbodiimide (EDC) and 2,2,2-trifluro ethylamine (TFEA). The samples were vortexed and reacted at room temperature for 30 minutes. The reactions were centrifuged at 4500 rpm for 5 minutes. The supernatant was transferred to a new plate for analysis. 3-SPA was identified and characterized using LC-MS and LC-MS/MS. Injections were made onto a Thermo Scientific AQUASIL 5 μm, 50×2.1 mm column using a Shimadzu autosampler and UPLC pump. Mobile phase A was 0.1% trifluoroacetic acid in water (v/v). Mobile phase B was 0.1% formic acid in 90/10 acetonitrile/water (v/v). The flow rate was 0.35 mL/min. The total running time per sample was 4 min. An API 6500 triple quadrupole mass spectrometer was used for detection. Data were acquired in negative LC-MS and LC-MS/MS modes. Representative chromatograms of 3-SPA in crude native material and human CSF derivatized with EDC and TFEA are shown in FIG. 7, FIG. 8 Panel A, and FIG. 8 Panel B. LC-MS and LC-MS/MS data were acquired using Analyst software (AB Sciex, Foster City, CA). LOQ for the LC-MS/MS method was 0.1 ng/ml with a dynamic range of 0.1 to 1000 ng/ml (r=0.99688 and % CV 5.8%±2.0; data on file). 3-SPA was identified in human CSF by matching the chromatographic retention time and by co-elution of the LC-MS/MS transition ions to the authentic 3-SPA reference standard (synthesized by Paraza Pharma, Montreal, Canada).
The levels of 3-SPA of in patients with a variety of cognition impairing diseases, including AD, ranged from 4.15 to 27.7 nM (0.64-4.27 ng/ml) (Table 1). When related to the CSF concentrations of Aβ42 monomers in AD patients (0.04 nM to 0.1 nM) (Bakan et al., ProDy: protein dynamics inferred from theory and experiments. Bioinformatics 2011; 27:1575-7; Shaw et al. Cerebrospinal fluid biomarker signature in Alzheimer's disease neuroimaging initiative subjects. Ann Neurol 2009; 65:403-13; Pannee et al. Reference measurement procedure for CSF Abeta1-42 and the CSF Abeta1-42/Abeta1-40 ratio—a crossvalidation study against Amyloid PET. J. Neurochem 2016; and Lambert et al. Diffusible, nonfibrillar ligands derived from A 1-42 are potent central nervous system neurotoxins. PNAS. 1998; 95:6448-53), there is an approximately 40-700 fold excess of 3-SPA over soluble Aβ42 monomers, which falls within the range where partial Aβ anti-oligomer aggregation activity may occur in some patients (Table 3). Furthermore, retrospective analyses of the CSF of a subset of patients from the tramiprosate Phase 3 trial were also evaluated for presence of 3-SPA, the primary metabolite of tramiprosate. […]

[2] = Brain penetration of oral 3-SPA in male SD rats (brain, CSF, plasma); assay type: in vivo, Sprague-Dawley rats; conditions: oral 30 mg/kg
Experimental: A separate group of animals was dosed orally at 30 mg/kg and terminal brain, CSF and plasma samples were collected at 1, 2, 6, and 24 hr (3 animals for each time point) for bioanalyses of 3-SPA in brain and CSF, and to estimate brain penetration relative to plasma concentrations. The in-life study was performed at Agilux Laboratories (Worcester, MA) following quality standards in line with Good Laboratory Practice. Bioanalyses of rat plasma, CSF and brain was preformed using LC-MS/MS at Nextcea. Prior to processing rat brains for bioanalysis, the brains were perfused to remove pooled blood. Pharmacokinetic data analyses were conducted using Winnonlin Professional v5.0.1 (Pharsight, Mountain View, CA).
The plasma concentration of a single dose of 3-SPA, dissolved in saline as a clear solution, administered orally and intravenously to rats at a dose level of 30 mg/kg and 10 mg/kg, respectively, are shown in FIG. 9. Brain, CSF and corresponding plasma levels after a single oral dose of dose of 30 mg/kg of 3-SPA at 1, 2, 6, and 24 hr are shown in FIG. 10. Mean PK curves were used for calculation of pharmacokinetic parameters.

CYP = test: Metabolism and CYP interactions of 3-SPA
Description: ALZ-801 is a valine conjugate of tramiprosate that has been optimized for improved pharmacokinetic properties and gastrointestinal tolerability. Chronic toxicology studies required for the advancement of ALZ-801 to Phase 3 have been completed, including the nonclinical safety characterization of ALZ-801, and the safety bridge to the extensive nonclinical toxicology and safety data for tramiprosate. […] See Hey et al., Clinical Pharmacokinetics and Safety of ALZ-801, a Novel Prodrug of Tramiprosate in Development for the Treatment of Alzheimer's Disease. Clin Pharmacokinetics 2018; 315-333 and Kocis et al., Elucidating the Abeta42 Anti-Aggregation Mechanism of Action of Tramiprosate in Alzheimer's Disease: Integrating Molecular Analytical Methods. Pharmacokinetic and Clinical Data. CNS Drugs 2017; 31:495-509. […] Both ALZ-801 and tramiprosate have consistent elimination half-life in plasma across species following repeated oral doses of ALZ-801, indicating no potential for accumulation after chronic dosing. Following conversion of ALZ-801 to tramiprosate, tramiprosate is consistently metabolized in vivo into a single major metabolite, 3-sulfopropanoic acid (3-SPA), in humans, mice, rats, dogs and minipigs.

O=C(O)CCS(=O)(=O)O [3-SPA, 3-sulfopropanoic acid]
CSF concentration of 3-SPA, Median ([1]; Week 78): 19.3 ng/ml and 127.5 nM | CSF concentration of 3-SPA, Minimum-maximum ([1]; Week 78): 17.3-35.7 ng/ml and 114.3-235.8 nM | increase of mean CSF 3-SPA over levels observed in drug naïve patients ([1]; Week 78): 12.6 fold | CSF concentration of 3-SPA, Mean ± SD ([1]; Week 78, n=6): 22.3 ± 7.9 ng/ml and 147 ± 51.3 nM | concentration at 78 week ([1]; Week 78, n=6, read-out: CSF concentration of 3-SPA, Mean ± SD): 147 nM | concentration at 78 week ([1]; Week 78, read-out: CSF concentration of 3-SPA, Minimum-maximum): 114 to 236 nM | AUC 0-inf_obs ([2]; Brain): 33224.4 ng·h/mL | AUC 0-t ([2]; Brain): 7586.5 ng·h/mL | Cmax ([2]; Brain): 649.8 ng/mL | t½ ([2]; Brain): 64.07 h | AUC 0-inf_obs ([2]; CSF): 726.2 ng·h/mL | AUC 0-t ([2]; CSF): 463.6 ng·h/mL | Cmax ([2]; CSF): 159.2 ng/mL | t½ ([2]; CSF): 3.56 h | AUC 0-inf_obs ([2]; Plasma): 30099.2 ng·h/mL | AUC 0-t ([2]; Plasma): 30001.7 ng·h/mL | Cmax ([2]; Plasma): 5714.6 ng/mL | t½ ([2]; Plasma): 3.03 h | CSF/brain AUC % [2]: 6.1% | Brain/Plasma (AUC %), brain penetration ([2]; 30 mg/kg): 25% and 25.3% | Further metabolism or CYP interactions (in words) (CYP): No further metabolism or CYP interactions have been observed
